Legend:
[1] = molecular target: T1, streptavidin (Streptomyces avidinii, UniProt P22629); assay: Specific inhibition of the cross-link of free furan-StrepTagII peptides with streptavidin by biotin; format: binding; details: ten equivalents peptide, streptavidin and biotin, 60 min 37° C.; one equivalent NBS, 2 hours 10° C.
Procedure: In order to test the specificity of the StrepTagII-streptavidin cross-link, the experiment of Example 5 was repeated in the presence of biotin. As mentioned before, biotin binds streptavidin with high affinity and on the same binding site as the StrepTagII and can therefore act as a specific inhibitor of the cross-link.
Ten equivalents of the furan-StrepTagII peptides 5.2 or 5.3, obtained as described in Example 1, were mixed with streptavidin and biotin and incubated during 60 min at 37° C. One equivalent of NBS per equivalent of peptide was added and the reaction was performed during 2 hours at 10° C. with shaking.

[2] = molecular target: T1, streptavidin; assay: Cross-linking free furan-StrepTagII peptides with streptavidin (furan-oxidation, NBS, MALDI-TOF); format: binding; details: for peptide cross-linking with streptavidin: ten equivalents peptide, 60 min 37° C., one equivalent NBS per peptide, 2 hours 10° C., NaCNBH3
Excerpt: In order to show the cross-link between peptides, an in vitro model system based on the interaction between the StrepTagII and streptavidin was used. The first available Strep-Tag (AWRHPQFGG; SEQ ID NO: 19) able to bind streptavidin could only be attached to the C-terminus of a protein. By changing the sequence of the Strep-Tag, a StrepTagII was developed that can be both N-terminally and C-terminally modified without losing its affinity for streptavidin. Because the intermolecular interactions between the StrepTagII and streptavidin are well characterized, StrepTagII-streptavidin is an excellent model for testing cross-linking.
The free N-terminal and C-terminal furan-StrepTagII peptides 5.2 and 5.3, obtained as described in Example 1, were used to test cross-linking with streptavidin using the furan-oxidation method.
Ten equivalents of the furan-peptides 5.2 or 5.3 were mixed with streptavidin and incubated during 60 min at 37° C. One equivalent of NBS per equivalent of peptide was added as an activation signal and the reaction mixture was incubated during 2 hours at 10° C. with shaking. […] The cross-link between the N-terminal furan-StrepTagII peptide 5.2 and streptavidin was less explicit than the cross-link between the C-terminal furan-StrepTagII peptide 5.3 and streptavidin. This is however not unexpected since the N-terminus of the furan-StrepTagII peptide 5.2 is located outside of its binding site with streptavidin.

[3] = molecular target: T1, streptavidin; details: same binding site as the StrepTagII; cited from earlier work
[4] = molecular target: T2, wild type pyrrolysyl-tRNA synthetase of M. mazei (Methanosarcina mazei, UniProt Q8PWY1); assay: Incorporation of furan amino acid in Yellow Fluorescent Protein in E. coli, wild type synthetase; format: cell-based; details: 0, 2, 5 and 10 mM in T7 Express E. coli cultures; YFP fluorescence
T2 construct: expressed in transfected cells
T2 sequence (Q8PWY1 whole entry): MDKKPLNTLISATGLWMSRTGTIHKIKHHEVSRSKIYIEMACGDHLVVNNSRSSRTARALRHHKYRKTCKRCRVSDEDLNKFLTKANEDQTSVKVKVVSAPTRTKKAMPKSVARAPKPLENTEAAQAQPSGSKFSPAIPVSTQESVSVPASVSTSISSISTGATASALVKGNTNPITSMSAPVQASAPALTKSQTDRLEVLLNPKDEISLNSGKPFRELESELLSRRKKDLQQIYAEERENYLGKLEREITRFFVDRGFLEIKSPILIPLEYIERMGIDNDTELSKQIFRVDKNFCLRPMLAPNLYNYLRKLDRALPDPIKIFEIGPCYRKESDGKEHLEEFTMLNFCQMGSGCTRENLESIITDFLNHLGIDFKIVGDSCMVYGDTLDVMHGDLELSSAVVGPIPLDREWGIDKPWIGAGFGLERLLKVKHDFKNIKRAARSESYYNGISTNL
Procedure: (§1) The incorporation of unnatural furan amino acids by the pyrrolysyl-tRNA synthetase and its tRNA-CUA in Yellow Fluorescent Protein (YFP) can be easily evaluated by monitoring its fluorescence with confocal microscopy. Without incorporation of the furan amino acid at the amber codon position a truncated non-fluorescent protein was obtained, therefore the obtained fluorescence intensity paralleled the incorporation efficiency. The incorporation of the furan amino acids was tested with the tRNA-CUA of Methanosarcina mazei (M. mazei) and with the wild type pyrrolysyl-tRNA synthetase of M. mazei and the Tyr384Phe-Tyr306Ala variant of the pyrrolysyl-tRNA synthetase of M. mazei (Yanagisawa et al., Chemistry & Biology, 2008, 15, 1187-1197).
(§2) The furan amino acid of Formula (XId) or the furan amino acid of Formula (XIc) was added in a concentration of 0, 2, 5 and 10 mM to 5 ml cell cultures of T7 Express Competent E. coli (from New England BioLabs) transformed with a pET-Duet-1 plasmid (Novagen) containing the genes for the pyrrolysine tRNA-synthetase, 3 copies of the tRNA-CUA and the mutated YFP, in LB medium with the appropriate antibiotic.

[5] = molecular target: T3, Tyr384Phe-Tyr306Ala variant of the pyrrolysyl-tRNA synthetase of M. mazei (Methanosarcina mazei, UniProt Q8PWY1, Y306A/Y384F); assay: Incorporation of furan amino acid in Yellow Fluorescent Protein in E. coli, mutated synthetase; format: cell-based; details: for incorporation in YFP by the mutated pyrrolysine tRNA-synthetase: 0, 2, 5 and 10 mM in T7 Express E. coli cultures, YFP fluorescence
T3 construct: expressed in transfected cells
T3 sequence (Q8PWY1 whole entry Y306A/Y384F): as the sequence (Q8PWY1 whole entry) above, with Y306A, Y384F counted along it
Procedure: as §1, §2

[6] = molecular target: T4, wild type pyrrolysyl-tRNA synthetase and tRNA-CUA of M. mazei (Methanosarcina mazei, UniProt Q8PWY1); assay: Incorporation of furan amino acid in thioredoxinA (TrxA), LCMS and trypsin digest; format: cell-based; details: 5 mM in 1 l cell culture; trypsin digest and peptide analysis
T4 construct: expressed in transfected cells
T4 sequence (Q8PWY1 whole entry): as the sequence (Q8PWY1 whole entry) above
Procedure: In addition to YFP, another protein, thioredoxinA (TrxA), was chosen for providing additional proof of incorporation of a furan amino acid in a protein, through mass characterization after purification.
Experiments were performed similar as in Example 12 with wild type pyrrolysyl-tRNA synthetase and tRNA-CUA of M. mazei, with the mutated TrxA and with the furan amino acid of Formula (XIc) in a concentration of 5 mM in a 1 l cell culture. This yielded 170 μg of protein after purification over a Strep column. Accurate mass determination with full protein LCMS analysis (Orbitrap, Thermo Scientific) found a mass of 13039.7 Dalton (the calculated average mass of the furan-modified oxidized thioredoxinA without the starting methionine is 13039.95 Dalton), proving the incorporation of the furan amino acid in the protein and its stability.

T1 sequence (P22629 25-183, species assumed): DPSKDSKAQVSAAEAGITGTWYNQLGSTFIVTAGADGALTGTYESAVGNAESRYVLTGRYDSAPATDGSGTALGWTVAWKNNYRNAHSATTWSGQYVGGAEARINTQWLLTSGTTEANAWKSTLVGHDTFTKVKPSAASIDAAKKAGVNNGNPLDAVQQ

Row | Compound | peptide cross-linking with streptavidin [2] | incorporation in YFP by the wild type synthetase [4] | incorporation in YFP by the mutated pyrrolysine tRNA-synthetase [5] | other results
1 | peptide 5.3: C-terminal furan-StrepTagII peptide with C-terminal (2-furyl)-alanine, N-terminally capped with 2-naphtoic acid (FIG. 9, SEQ ID NO 3) (WSHPQFEKA; N-terminal 2-naphthoyl cap; C-terminal 2-furylalanine) | cross-linking was observed | – | – | cross-link with streptavidin in the presence of biotin [1]: no cross-link
2 | O=C(O)CCCC[C@@H]1SC[C@@H]2NC(=O)N[C@@H]21 [biotin] | – | – | – | affinity for streptavidin relative to StrepTagII [3]: much higher affinity
3 | NC(CCCCNC(=O)NCc1ccco1)C(=O)O (centres unmarked) [furan amino acid of Formula (XId)] | – | did not incorporate | incorporated both | –
4 | NC(CCCCNC(=O)c1ccco1)C(=O)O (centres unmarked) [furan amino acid of Formula (XIc)] | – | incorporated in YFP by the wild type synthetase in good yield | incorporated both | incorporation in TrxA [6]: incorporation of the furan amino acid on the correct position of TrxA; incorporation in YFP by the mutated synthetase, comparison ([5]; compared with Formula (XId) and with wild type synthetase): better than the incorporation of the furan amino acid of Formula (XId), but in lower yield than with the wild type synthetase
5 | peptide 5.2: N-terminal furan-StrepTagII peptide with N-terminal (2-furyl)-alanine capped with 2-naphtoic acid (FIG. 8, SEQ ID NO 2) (AWSHPQFEK; N-terminal furylalanine capped with 2-naphthoic acid) | cross-linking was observed | – | – | cross-link with streptavidin compared with peptide 5.3 ([2]; same conditions as E1): less explicit

Source: patent US9290537B2, “Method for cross-linking peptides” (UNIVERSITEIT GENT, priority 2010, dated 2016)
